Reference: PubChem BioAssay AID330 (DTP/NCI, 2004)
Several values for one entry are separate records, joined by “and”; a condition that tells them apart may be missing. Identical values can stand only once. Inconclusive results and toxic doses are left out.

Tested on: P388 leukemia ip, CD2F1 mice, survival T/C
Experiment: NCI In Vivo Anticancer Drug Screen. Data for tumor model P388 Leukemia (intraperitoneal) in CD2F1 (CDF1) mice
Conditions: endpoint: median survival time, vehicle: other, higher = longer survival
Outline: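 Mice carrying the transplanted tumor received test compound or vehicle. Survival was recorded in each group, and the value is the treated-group measurement divided by that of the vehicle-treated control group.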

**Q.** For `CC1OC(=O)C(C(C)C)NC(=O)C(C(C)C)OC(=O)C(C(C)C)NC(=O)C(C)OC(=O)C(C(C)C)NC(=O)C(C(C)C)OC(=O)C(C(C)C)NC(=O)C(C)OC(=O)C(C(C)C)NC(=O)C(C(C)C)OC(=O)C(C(C)C)NC1=O` (configuration not stated), which T/C (dose: 12.5 micrograms/kg/injection, schedule: Q01DX005 (iv)) is on record?
**A.** 99 % of control and 100 % of control

**Q.** What about the T/C (dose: 12.5 micrograms/kg/injection, schedule: Q03HX008 (ip)) of the same molecule?
**A.** 118 % of control

**Q.** What about the T/C (dose: 12.5 micrograms/kg/injection, schedule: Q03HX020 (ip)) of the same molecule?
**A.** 119 % of control

**Q.** What about the T/C (dose: 12.5 micrograms/kg/injection, schedule: Q04DX002 (iv)) of the same molecule?
**A.** 101 % of control

**Q.** And the T/C (dose: 12.5 micrograms/kg/injection, schedule: Q12HX004 (ip))?
**A.** 110 % of control

**Q.** And the T/C (dose: 12.5 micrograms/kg/injection, schedule: Q12HX004 (iv))?
**A.** 103 % of control

**Q.** What about the T/C (dose: 12.5 micrograms/kg/injection, schedule: Q12HX010 (ip)) of the same molecule?
**A.** 123 % of control

**Q.** And the T/C (dose: 12.5 micrograms/kg/injection, schedule: Q12HX010 (iv))?
**A.** 103 % of control

**Q.** And the T/C (dose: 25.0 micrograms/kg/injection, schedule: Q01DX001 (ip))?
**A.** 98 % of control

**Q.** What about the T/C (dose: 25.0 micrograms/kg/injection, schedule: Q01DX001 (iv)) of the same molecule?
**A.** 103 % of control

**Q.** What about the T/C (dose: 25.0 micrograms/kg/injection, schedule: Q01DX005 (ip)) of the same molecule?
**A.** 115 % of control and 116 % of control

**Q.** And the T/C (dose: 25.0 micrograms/kg/injection, schedule: Q01DX005 (iv))?
**A.** 99 % of control and 100 % of control

**Q.** And the T/C (dose: 25.0 micrograms/kg/injection, schedule: Q03HX008 (ip))?
**A.** 113 % of control

**Q.** And the T/C (dose: 25.0 micrograms/kg/injection, schedule: Q03HX020 (ip))?
**A.** 124 % of control

**Q.** And the T/C (dose: 25.0 micrograms/kg/injection, schedule: Q04DX002 (ip))?
**A.** 102 % of control

**Q.** And the T/C (dose: 25.0 micrograms/kg/injection, schedule: Q04DX002 (iv))?
**A.** 101 % of control

**Q.** And the T/C (dose: 25.0 micrograms/kg/injection, schedule: Q12HX004 (ip))?
**A.** 100 % of control

**Q.** What about the T/C (dose: 25.0 micrograms/kg/injection, schedule: Q12HX004 (iv)) of the same molecule?
**A.** 98 % of control

**Q.** And the T/C (dose: 25.0 micrograms/kg/injection, schedule: Q12HX010 (ip))?
**A.** 121 % of control

**Q.** What about the T/C (dose: 25.0 micrograms/kg/injection, schedule: Q12HX010 (iv)) of the same molecule?
**A.** 103 % of control

**Q.** What about the T/C (dose: 50.0 micrograms/kg/injection, schedule: Q01DX001 (ip)) of the same molecule?
**A.** 100 % of control

**Q.** What about the T/C (dose: 50.0 micrograms/kg/injection, schedule: Q01DX001 (iv)) of the same molecule?
**A.** 101 % of control

**Q.** What about the T/C (dose: 50.0 micrograms/kg/injection, schedule: Q01DX005 (ip)) of the same molecule?
**A.** 118 % of control and 120 % of control

**Q.** And the T/C (dose: 50.0 micrograms/kg/injection, schedule: Q01DX005 (iv))?
**A.** 98 % of control and 103 % of control

**Q.** What about the T/C (dose: 50.0 micrograms/kg/injection, schedule: Q04DX002 (ip)) of the same molecule?
**A.** 109 % of control

**Q.** What about the T/C (dose: 50.0 micrograms/kg/injection, schedule: Q04DX002 (iv)) of the same molecule?
**A.** 100 % of control

**Q.** And the T/C (dose: 50.0 micrograms/kg/injection, schedule: Q12HX004 (ip))?
**A.** 113 % of control

**Q.** And the T/C (dose: 50.0 micrograms/kg/injection, schedule: Q12HX004 (iv))?
**A.** 104 % of control

**Q.** What about the T/C (dose: 50.0 micrograms/kg/injection, schedule: Q12HX010 (iv)) of the same molecule?
**A.** 101 % of control

**Q.** What about the T/C (dose: 100.0 micrograms/kg/injection, schedule: Q01DX001 (ip)) of the same molecule?
**A.** 100 % of control

**Q.** What about the T/C (dose: 100.0 micrograms/kg/injection, schedule: Q01DX001 (iv)) of the same molecule?
**A.** 100 % of control

**Q.** What about the T/C (dose: 100.0 micrograms/kg/injection, schedule: Q01DX005 (iv)) of the same molecule?
**A.** 101 % of control

**Q.** And the T/C (dose: 100.0 micrograms/kg/injection, schedule: Q03HX020 (ip))?
**A.** 161 % of control

**Q.** And the T/C (dose: 100.0 micrograms/kg/injection, schedule: Q04DX002 (ip))?
**A.** 110 % of control

**Q.** And the T/C (dose: 100.0 micrograms/kg/injection, schedule: Q04DX002 (iv))?
**A.** 101 % of control

**Q.** And the T/C (dose: 100.0 micrograms/kg/injection, schedule: Q12HX004 (ip))?
**A.** 124 % of control

**Q.** And the T/C (dose: 100.0 micrograms/kg/injection, schedule: Q12HX010 (iv))?
**A.** 102 % of control

**Q.** And the T/C (dose: 200.0 micrograms/kg/injection, schedule: Q01DX001 (ip))?
**A.** 103 % of control

**Q.** What about the T/C (dose: 200.0 micrograms/kg/injection, schedule: Q03HX008 (ip)) of the same molecule?
**A.** 120 % of control

**Q.** What about the T/C (dose: 200.0 micrograms/kg/injection, schedule: Q12HX010 (ip)) of the same molecule?
**A.** 153 % of control

**Q.** And the T/C (dose: 400.0 micrograms/kg/injection, schedule: Q01DX001 (ip))?
**A.** 111 % of control

**Q.** What about the T/C (dose: 800.0 micrograms/kg/injection, schedule: Q01DX001 (ip)) of the same molecule?
**A.** 114 % of control
